Assays:
[1] = target: Adenosine A1 (Homo sapiens, UniProt P30542); test: functional assay, impedance, CHO cells (Table S2); type: cell-based; conditions: read-out: % inhibition of reference agonist response @ 10 µM (antagonist effect), CPA (1 nM)
[2] = target: T1, COX2 (Homo sapiens, UniProt P35354); test: enzyme assay (Table S2); type: biochemical; conditions: Arachidonic acid (2 µM) + ADHP, Fluorimetry
T1 construct: Eurofins (assay provider); host or cells: Sf9 cells

[3] = target: T2, PKCε (Homo sapiens, UniProt Q02156); test: enzyme assay (Table S2); type: biochemical; conditions: HTRF
T2 construct: host or cells: insect cells

[4] = target: T3, Opioid κ (KOP) (Rattus norvegicus, UniProt P34975); test: radioligand binding (Table S2); conditions: [3H] U 69593, Rat recombinant CHO cells
T3 construct: host or cells: CHO cells

[5] = system: Sodium Na+ channel (site 2); type: binding; conditions: [3H] Batrachotoxinin, Rat cerebral cortex
[6] = target: T4, Benzodiazepine BZD (peripheral) (Rattus norvegicus, UniProt P16257); test: radioligand binding (Table S2)
T4 construct: tissue Eurofins; host or cells: rat heart

[7] = target: T5, C5a (Homo sapiens, UniProt P21730); test: functional assay, cAMP HTRF, HEK-293 cells (Table S2); type: cell-based
T5 construct: expressed in transfected cells; host or cells: HEK-293 cells

[8] = target: T6, Chemokine CCR1 (Homo sapiens, UniProt P32246); test: radioligand binding (Table S2); conditions: [125I] MIP-1α, Human recombinant HEK-293 cells
T6 construct: host or cells: HEK-293 cells

[9] = target: T7, Dopamine D2S (Homo sapiens, UniProt P14416); test: radioligand binding (Table S2); conditions: [3H] 7-OH-DPAT, Human recombinant HEK-293 cells
T7 construct: host or cells: HEK-293 cells

[10] = target: Motilin (Homo sapiens, UniProt O43193); test: radioligand binding (Table S2); conditions: [125I] Motilin, Human recombinant CHO cells
[11] = target: T8, Thyrotropin-releasing hormone TRH1 (Homo sapiens, UniProt P34981); test: radioligand binding (Table S2); conditions: [3H] Me-TRH, Human recombinant CHO cells
T8 construct: host or cells: CHO cells

[12] = target: PDE3A (Homo sapiens, UniProt Q14432); test: enzyme assay (Table S2); type: biochemical; conditions: [3H]cAMP + cAMP (0.5 µM), Scintillation counting
[13] = system: Glycine, strychnine-sensitive; test: radioligand binding (Table S2); conditions: [3H] Strychnine, Wistar rat spinal cord
[14] = in vitro; conditions: male, Wistar, rat, microsomes, pH 7.4
[15] = system: Calcium Ca2+ channel (L-dihydropyridine site); test: radioligand binding (Table S2); conditions: [3H] Nitrendepine, Rat cerebral cortex
[16] = system: Glutamate ionotropic, AMPA; test: radioligand binding (Table S2); conditions: [3H] AMPA, Rat cerebral cortex
[17] = target: T9, Opioid δ (DOP) (Homo sapiens, UniProt P41143); test: radioligand binding (Table S2); conditions: [3H] DADLE, Human recombinant CHO cells
T9 construct: host or cells: CHO cells

[18] = target: T10, Gonadotropin-releasing hormone (Homo sapiens, UniProt P30968); test: radioligand binding (Table S2); conditions: [125I] [D-Trp6]-LH-RH, Human recombinant Chem-1 cells
T10 construct: host or cells: Chem-1 cells

[19] = target: T11, Endothelin ETA (Homo sapiens, UniProt P25101); test: radioligand binding (Table S2); conditions: [125I] Endothelin-1, Human recombinant CHO cells
T11 construct: host or cells: CHO cells

[20] = target: T12, Serotonin 5-HT2C (Homo sapiens, UniProt P28335); test: radioligand binding (Table S2); conditions: [3H] Mesulergine, Human recombinant HEK-293 cells
T12 construct: host or cells: HEK-293 cells

[21] = target: T13, Orexin OX2 (Homo sapiens, UniProt O43614); test: radioligand binding (Table S2); conditions: [125I] Orexin A, Human recombinant HEK-293 cells
T13 construct: host or cells: HEK-293 cells

[22] = system: Muscarinic, oxotremorine M; test: radioligand binding (Table S2); conditions: [3H] Oxotremorine M, Wistar rat cerebral cortex
[23] = target: T14, Histamine H3 (Homo sapiens, UniProt Q9Y5N1); test: radioligand binding (Table S2); conditions: [3H] Nα-Me-histamine, Human recombinant CHO cells
T14 construct: host or cells: CHO cells

[24] = target: T15, Serotonin 5-HT2A (Homo sapiens, UniProt P28223); test: radioligand binding (Table S2); conditions: [125I] (±)DOI, Human recombinant HEK-293 cells
T15 construct: host or cells: HEK-293 cells

[25] = target: Cholecystokinin CCK1 (Homo sapiens, UniProt P32238); test: radioligand binding (Table S2); conditions: [125I] CCK-8s, Human recombinant CHO cells
[26] = target: Somatostatin sst2 (Homo sapiens, UniProt P30874); test: radioligand binding (Table S2); conditions: [125I] Tyr11-Somatostatin 14, Human recombinant CHO-K1 cells
[27] = target: T16, Galanin GAL2 (Homo sapiens, UniProt O43603); test: radioligand binding (Table S2); conditions: [125I] Galanin, Human recombinant CHO cells
T16 construct: host or cells: CHO cells

[28] = target: T17, Neurokinin NK3 (Homo sapiens, UniProt P29371); test: radioligand binding (Table S2); conditions: [3H] SR 142801, Human recombinant CHO cells
T17 construct: host or cells: CHO cells
T17 sequence (P29371 1-465): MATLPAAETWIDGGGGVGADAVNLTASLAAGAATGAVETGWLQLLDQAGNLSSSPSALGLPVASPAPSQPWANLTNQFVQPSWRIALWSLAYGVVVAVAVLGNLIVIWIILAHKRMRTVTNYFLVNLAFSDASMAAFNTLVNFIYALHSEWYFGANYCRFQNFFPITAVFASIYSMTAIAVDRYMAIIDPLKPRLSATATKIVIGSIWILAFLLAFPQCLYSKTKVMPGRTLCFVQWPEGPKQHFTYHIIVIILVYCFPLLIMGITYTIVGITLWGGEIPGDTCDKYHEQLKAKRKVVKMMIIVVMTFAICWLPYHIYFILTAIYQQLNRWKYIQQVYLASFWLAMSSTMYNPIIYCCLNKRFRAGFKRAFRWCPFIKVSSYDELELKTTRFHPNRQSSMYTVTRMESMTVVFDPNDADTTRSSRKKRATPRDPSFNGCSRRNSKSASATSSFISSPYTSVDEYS

T5 sequence (P21730 whole entry): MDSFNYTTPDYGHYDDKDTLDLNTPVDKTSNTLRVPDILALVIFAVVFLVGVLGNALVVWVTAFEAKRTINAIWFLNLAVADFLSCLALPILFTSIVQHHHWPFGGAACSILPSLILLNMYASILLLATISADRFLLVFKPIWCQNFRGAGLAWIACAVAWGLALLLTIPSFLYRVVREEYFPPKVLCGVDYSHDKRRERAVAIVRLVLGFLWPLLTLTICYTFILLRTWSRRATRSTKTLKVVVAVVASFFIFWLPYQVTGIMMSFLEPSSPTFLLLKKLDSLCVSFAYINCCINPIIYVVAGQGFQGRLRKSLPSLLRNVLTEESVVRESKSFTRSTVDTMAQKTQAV
T11 sequence (P25101 21-427): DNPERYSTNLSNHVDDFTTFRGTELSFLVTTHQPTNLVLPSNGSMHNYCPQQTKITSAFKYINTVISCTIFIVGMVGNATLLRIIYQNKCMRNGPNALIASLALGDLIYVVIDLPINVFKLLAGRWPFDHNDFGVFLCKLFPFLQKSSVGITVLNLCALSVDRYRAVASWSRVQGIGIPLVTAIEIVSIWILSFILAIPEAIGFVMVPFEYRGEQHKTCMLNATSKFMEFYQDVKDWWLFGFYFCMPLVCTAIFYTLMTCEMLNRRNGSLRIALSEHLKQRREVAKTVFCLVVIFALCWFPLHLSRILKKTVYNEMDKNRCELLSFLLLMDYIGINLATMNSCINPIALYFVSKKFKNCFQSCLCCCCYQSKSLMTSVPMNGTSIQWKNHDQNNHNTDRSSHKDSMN
T9 sequence (P41143 whole entry): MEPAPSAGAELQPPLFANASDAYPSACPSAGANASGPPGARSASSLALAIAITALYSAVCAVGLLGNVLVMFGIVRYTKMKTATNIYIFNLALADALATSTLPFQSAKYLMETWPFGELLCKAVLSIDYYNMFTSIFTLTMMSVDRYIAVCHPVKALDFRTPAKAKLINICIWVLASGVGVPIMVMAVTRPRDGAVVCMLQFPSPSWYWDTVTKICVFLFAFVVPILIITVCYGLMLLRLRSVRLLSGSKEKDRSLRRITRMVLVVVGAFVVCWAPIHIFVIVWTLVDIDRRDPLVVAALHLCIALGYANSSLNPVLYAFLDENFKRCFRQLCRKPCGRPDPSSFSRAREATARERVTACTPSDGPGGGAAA
T16 sequence (O43603 whole entry): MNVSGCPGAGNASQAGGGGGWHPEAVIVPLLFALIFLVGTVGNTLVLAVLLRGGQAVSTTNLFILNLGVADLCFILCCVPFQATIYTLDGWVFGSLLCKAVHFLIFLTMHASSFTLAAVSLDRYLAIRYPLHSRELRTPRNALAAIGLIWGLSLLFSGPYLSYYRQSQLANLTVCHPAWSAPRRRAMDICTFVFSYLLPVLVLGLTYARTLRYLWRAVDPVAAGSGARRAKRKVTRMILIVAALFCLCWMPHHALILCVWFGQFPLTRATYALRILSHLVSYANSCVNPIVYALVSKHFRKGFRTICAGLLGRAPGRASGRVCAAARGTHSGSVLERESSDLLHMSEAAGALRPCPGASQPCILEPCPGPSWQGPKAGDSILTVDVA
T14 sequence (Q9Y5N1 whole entry): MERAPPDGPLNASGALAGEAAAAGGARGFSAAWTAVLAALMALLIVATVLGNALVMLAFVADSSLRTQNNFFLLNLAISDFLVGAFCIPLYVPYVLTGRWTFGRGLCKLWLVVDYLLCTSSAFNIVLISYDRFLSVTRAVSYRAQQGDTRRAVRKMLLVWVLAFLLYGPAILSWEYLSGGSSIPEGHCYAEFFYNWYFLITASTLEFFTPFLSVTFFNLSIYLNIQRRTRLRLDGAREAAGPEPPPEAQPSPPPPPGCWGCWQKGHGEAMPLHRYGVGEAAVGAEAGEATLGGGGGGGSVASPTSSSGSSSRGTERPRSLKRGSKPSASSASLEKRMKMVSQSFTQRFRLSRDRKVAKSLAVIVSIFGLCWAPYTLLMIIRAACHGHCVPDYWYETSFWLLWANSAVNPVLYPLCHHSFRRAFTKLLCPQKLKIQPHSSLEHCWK
T15 sequence (P28223 whole entry): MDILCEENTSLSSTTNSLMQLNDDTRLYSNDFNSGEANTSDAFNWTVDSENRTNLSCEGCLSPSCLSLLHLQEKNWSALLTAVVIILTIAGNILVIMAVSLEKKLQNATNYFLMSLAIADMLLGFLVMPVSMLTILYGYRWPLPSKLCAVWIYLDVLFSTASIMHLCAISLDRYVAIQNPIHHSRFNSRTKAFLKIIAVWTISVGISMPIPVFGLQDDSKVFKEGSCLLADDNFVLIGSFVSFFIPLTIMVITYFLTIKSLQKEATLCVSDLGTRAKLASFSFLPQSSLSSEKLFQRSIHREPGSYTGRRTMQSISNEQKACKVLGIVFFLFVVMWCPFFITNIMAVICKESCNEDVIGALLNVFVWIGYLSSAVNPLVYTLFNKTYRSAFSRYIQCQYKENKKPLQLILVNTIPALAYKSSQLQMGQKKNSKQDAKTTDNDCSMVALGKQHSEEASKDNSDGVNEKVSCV
T7 sequence (P14416 1-414 isoform P14416-2): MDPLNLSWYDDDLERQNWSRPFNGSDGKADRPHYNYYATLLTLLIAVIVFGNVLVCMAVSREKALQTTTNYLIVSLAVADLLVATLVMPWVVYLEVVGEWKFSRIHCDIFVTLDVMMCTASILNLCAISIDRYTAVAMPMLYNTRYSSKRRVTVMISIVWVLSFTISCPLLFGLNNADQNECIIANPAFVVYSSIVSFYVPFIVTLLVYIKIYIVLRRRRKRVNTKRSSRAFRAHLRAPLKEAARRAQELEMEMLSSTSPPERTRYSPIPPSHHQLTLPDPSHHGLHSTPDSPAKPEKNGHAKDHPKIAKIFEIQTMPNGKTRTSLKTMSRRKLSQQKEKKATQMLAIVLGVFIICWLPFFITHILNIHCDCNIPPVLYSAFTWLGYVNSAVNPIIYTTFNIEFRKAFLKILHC
Sequence of PDE3A (Q14432 whole entry): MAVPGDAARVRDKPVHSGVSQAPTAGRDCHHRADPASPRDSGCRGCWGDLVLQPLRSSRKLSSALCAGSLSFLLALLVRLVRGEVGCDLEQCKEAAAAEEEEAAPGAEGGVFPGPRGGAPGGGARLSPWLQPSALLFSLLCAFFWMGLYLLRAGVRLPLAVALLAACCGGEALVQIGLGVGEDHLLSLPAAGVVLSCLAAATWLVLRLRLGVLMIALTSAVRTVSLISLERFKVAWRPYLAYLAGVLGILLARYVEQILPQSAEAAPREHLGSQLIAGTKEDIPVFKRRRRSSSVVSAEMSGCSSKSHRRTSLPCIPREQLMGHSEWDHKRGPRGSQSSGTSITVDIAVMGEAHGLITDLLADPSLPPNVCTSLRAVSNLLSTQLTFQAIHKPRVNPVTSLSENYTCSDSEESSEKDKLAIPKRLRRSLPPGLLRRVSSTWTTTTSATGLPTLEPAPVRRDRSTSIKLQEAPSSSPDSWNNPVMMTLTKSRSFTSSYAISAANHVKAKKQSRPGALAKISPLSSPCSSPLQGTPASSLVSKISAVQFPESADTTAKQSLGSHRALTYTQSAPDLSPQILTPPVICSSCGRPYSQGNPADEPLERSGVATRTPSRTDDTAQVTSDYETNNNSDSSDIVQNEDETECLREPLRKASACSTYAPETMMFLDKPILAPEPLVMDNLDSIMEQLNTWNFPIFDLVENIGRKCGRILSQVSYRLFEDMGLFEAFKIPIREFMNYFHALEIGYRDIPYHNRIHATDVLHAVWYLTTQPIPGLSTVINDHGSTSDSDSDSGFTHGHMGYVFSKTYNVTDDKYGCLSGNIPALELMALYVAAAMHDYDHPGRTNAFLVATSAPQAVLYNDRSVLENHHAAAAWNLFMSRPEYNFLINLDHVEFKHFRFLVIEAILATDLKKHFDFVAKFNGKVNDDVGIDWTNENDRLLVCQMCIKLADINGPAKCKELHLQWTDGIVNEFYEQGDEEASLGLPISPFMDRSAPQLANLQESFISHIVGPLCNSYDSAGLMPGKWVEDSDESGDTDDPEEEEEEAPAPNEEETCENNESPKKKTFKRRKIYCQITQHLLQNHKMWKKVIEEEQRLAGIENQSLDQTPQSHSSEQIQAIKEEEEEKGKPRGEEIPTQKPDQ
Sequence of Cholecystokinin CCK1 (P32238 whole entry): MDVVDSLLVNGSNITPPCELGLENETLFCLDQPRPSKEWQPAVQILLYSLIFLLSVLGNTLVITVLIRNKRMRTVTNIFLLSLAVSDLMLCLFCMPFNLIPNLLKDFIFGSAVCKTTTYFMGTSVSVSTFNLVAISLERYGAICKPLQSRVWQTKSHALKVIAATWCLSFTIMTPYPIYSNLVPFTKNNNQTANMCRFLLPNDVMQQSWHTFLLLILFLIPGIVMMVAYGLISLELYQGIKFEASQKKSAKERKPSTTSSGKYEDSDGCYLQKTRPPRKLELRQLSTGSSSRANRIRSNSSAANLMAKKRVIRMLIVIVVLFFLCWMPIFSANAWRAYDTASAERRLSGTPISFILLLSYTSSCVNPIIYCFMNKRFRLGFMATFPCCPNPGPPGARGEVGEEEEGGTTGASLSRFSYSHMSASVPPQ
T10 sequence (P30968 whole entry): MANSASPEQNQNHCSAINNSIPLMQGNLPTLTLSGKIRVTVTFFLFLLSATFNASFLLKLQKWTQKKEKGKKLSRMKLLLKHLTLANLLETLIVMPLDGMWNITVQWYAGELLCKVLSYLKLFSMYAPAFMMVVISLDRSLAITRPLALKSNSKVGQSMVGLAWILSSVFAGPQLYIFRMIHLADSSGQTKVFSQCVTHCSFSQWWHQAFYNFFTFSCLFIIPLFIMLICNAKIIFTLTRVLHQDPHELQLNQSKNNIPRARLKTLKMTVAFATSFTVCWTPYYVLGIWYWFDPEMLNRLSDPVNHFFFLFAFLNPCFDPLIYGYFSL

Structure (SMILES): Cc1cc(-c2ncnn2C)c2cccc(OCc3c(Cl)cc(F)cc3[C@H](C)NC(=O)COC(F)F)c2n1 [Compound 3, (S)-N-(1-(3-chloro-5-fluoro-2-((2-methyl-4-(1-methyl-1H-1,2,4-triazol-5-yl)quinolin-8-yloxy)methyl)phenyl)ethyl)-2-(difluoromethoxy)acetamide]
- inhibition at 10 µM [1]: -2.3%
- inhibition at 10 µM [2]: -18.8%
- inhibition at 10 µM [3]: 6.8%
- inhibition at 10 µM [4]: 15.4%
- % Inhibition @ 10 µM [5]: -3.4%
- inhibition at 10 µM [6]: 42.3%
- inhibition at 10 µM ([7]; HEK293, read-out: % inhibition of reference agonist response @ 10 µM (antagonist effect), hC5a (10 nM)): -0.2%
- % of reference agonist response @ 10 µM (agonist effect) ([7]; reference hC5a (100 nM)): -18.1%
- inhibition at 10 µM [8]: -9.6%
- inhibition at 10 µM [9]: -2.7%
- inhibition at 10 µM [10]: 5%
- inhibition at 10 µM [11]: 21.7%
- inhibition at 10 µM [12]: 15.9%
- % Inhibition @ 10 µM [13]: -1%
- microsomal CLint at 1 µM [14]: 27.9 µL/min/mg
- % Inhibition @ 10 µM [15]: 7.3%
- % Inhibition @ 10 µM [16]: 3.0%
- inhibition at 10 µM [17]: 10.6%
- inhibition at 10 µM [18]: 5%
- inhibition at 10 µM [19]: -2.1%
- inhibition at 10 µM [20]: 5%
- inhibition at 10 µM [21]: 25.9%
- % Inhibition @ 10 µM [22]: 18%
- inhibition at 10 µM [23]: 6.2%
- inhibition at 10 µM [24]: -3.8%
- inhibition at 10 µM [25]: 2.7%
- inhibition at 10 µM [26]: -7%
- inhibition at 10 µM [27]: 6.2%
- inhibition at 10 µM [28]: 6.1%
